Article PMC5760651, “Peptidomimetic blockade of MYB in acute myeloid leukemia” (Nature Communications, 2018)
Non-standard residues stand in square brackets, D forms with d. Residues, ends and D or L forms follow the SMILES beside them.

How the values were obtained:
[1] = tested on: MV-411 cells; test: Growth and survival of MV-411 cells with ectopic BCL2 (MIG-BCL2) or empty MIG vector; assay type: cell-based, human; settings: 20 μM
Method: Cells were resuspended and plated at a concentration of 2 × 10^5 cells in 200 μl in 96-well tissue culture plates. Media with peptides was replaced every 48 h. To assess the number of viable cells, cells were resuspended in PBS and 10 µl of suspension was mixed in a 1:1 ratio with 0.4% Trypan Blue (Thermo Fisher) and counted using a hemacytometer (Hausser Scientific, Horsham, PA, USA). To assess viability using an ATP-based assay, cell viability was assessed using the CellTiter-Glo Luminescent Viability assay, according to the manufacturer’s instructions (Promega). Luminescence was recorded using the Infinite M1000Pro plate reader using integration time of 250 ms (Tecan).
The MIG-BCL2 vector was packaged using pUMVc and pCMV-VSVG vectors in HEK 293T cells and the FuGENE 6 transfection reagent, according to manufacturer’s instructions (Promega). Virus supernatant was collected at 48 and 72 h post transfection, pooled, filtered and stored at −80 °C. Cells were transduced with virus particles at a multiplicity of infection of 1 by spin inoculation for 90 min at 3500 rpm at 35 °C in the presence of 8 μg/ml hexadimethrine bromide. Two days after transduction, cells were isolated using fluorescence-activated cell sorting (FACSAria III, BD Bioscience, San Jose, CA, USA).

[2] = tested on: MV-411 cells; test: H3K27Ac ChIP-PCR at the BCL2 enhancer; assay type: cell-based, human; settings: 20 μM, 24 h, ChIP-qPCR, compared to TG3 or untreated control, p = 8.6e-3
Method: Cross-linking was ended by the addition of 1/20 volume of 2.5 M Glycine for 5 min at room temperature followed by cell lysis and sonication ([…] Covaris sonicator) to obtain 100- to 500-bp chromatin fragments. H3K27Ac Rabbit polyclonal antibody (Abcam, #4729) was conjugated to Protein A and G Dynabeads per manufacturer's instructions (Thermo Fischer Scientific). Lysates were incubated overnight at 4 °C with antibody-conjugated beads in suspension. Precipitates were then washed sequentially with cold washing solution (1% NP-40, […], 50 mM Hepes-KOH, pH 7.6, 500 mM LiCl, 0.7% Na-Deoxycholate) and then washing solution (50 mM Tris-HCL, pH 8.0, 10 mM EDTA, 50 mM NaCl), then eluted in elution buffer (50 mM Tris-HCL, pH 8.0, 10 mM EDTA, 1% SDS). Reversal of crosslinks in elution buffer overnight at 65 °C followed by digestion of RNA and protein using RNase (Roche, Catalog No. 111119915-001) and Proteinase K (Roche, Catalog No. 03115828001). DNA purification was performed using PureLink PCR Purification Kit per manufacturer's protocol (Invitrogen). qPCR was performed as described below.

[3] = tested on: AML cells; test: Flow cytometry of differentiation markers; assay type: cell-based, human
Method: Cells were resuspended to a concentration of 1 × 10^6 cells were plated in triplicate in a 12-well tissue culture plate. For assessment of annexin V staining, cells were washed with PBS and then resuspended in PBS with Annexin V-APC (BioLegend) and propidium iodide at a dilution of 1:1000. For intracellular detection of cleaved caspase 3, cells were fixed and permeabilized using the BD Cytofix/Cytoperm Fixation/Permeabilization solution according to the manufacturer’s instructions (BD Biosciences). Cells were then stained using the Alexa Fluor 647-conjugated anti-active caspase-3 (BD Biosciences) at a dilution of 1:50. Cells were incubated for 30 minutes room temperature in the dark, washed, and then analyzed using the BD LSRFortessa cell analyzer. For assessment of differentiation, cells were stained using the anti-human CD14 PE at a dilution of 1:20 (Affymetrix eBiosciences) and anti-human CD66b at a dilution of 1:20 (Affymetrix eBiosciences).

[4] = tested on: primary patient-derived MLL-rearranged leukemia cells in NSG mice; test: Patient-derived MLL-rearranged leukemia xenograft, treatment upon peripheral leukemia; assay type: in vivo, mouse; settings: vs vehicle
Method: All mouse experiments were carried out in accordance with the Memorial Sloan Kettering Institutional Animal Care and Use Committee. For toxicity studies, female C57BL/6J mice (The Jackson Laboratory, Bar Harbor, Maine, USA) were treated with MYBMIM peptide suspended in PBS and administered daily through intraperitoneal injection at a dose of 25 mg/kg for a total of 7 days. Mice were sacrificed at the end of treatment for hematologic, biochemical and histologic analyses. For pharmacokinetic studies, C57BL/6J mice (The Jackson Laboratory, Bar Harbor, Maine, USA) were treated with a single IP injection of 25 mg/kg BIO-MYBMIM, and blood plasma was collected 30 min, 2 h, 4 h, and 24 h post-injection. Quantification of BIO-MYBMIM was measured using the Quant-Tag Biotin kit (Vector Labs, cat. # BDK-2000) following the manufacturer instructions. For patient-derived xenografts, two hundred thousand primary AML MLL-rearranged leukemia cells were suspended in […] of PBS and transplanted via tail vein injection into 8-week-old sublethally irradiated (200 rad) female NOD.Cg-Prkdc(scid)Il2rg(tm1Wjl)/SzJ mice (The Jackson Laboratory, Bar Harbor, Maine, USA). Recipient mice were maintained on antibiotic supplementation in chow (0.025% trimethoprim, 0.124% sulfamethoxazole, Sulfatrim). Three days after transplant, mice were randomly assigned to experimental treatment groups. […]

CC[C@@H](C)[C@@H](NC(=O)[C@@H](CCCCN)NC(=O)[C@@H](CCC(=O)O)NC(=O)[C@@H](CC(C)C)NC(=O)[C@@H](CCC(=O)O)NC(=O)[C@@H](CC(C)C)NC(=O)[C@@H](CC(C)C)NC(=O)[C@@H](CC(C)C)NC(=O)[C@@H](CCSC)NC(=O)[C@@H](CO)NC(=O)[C@H](NC(=O)[C@@H](CCC(=O)O)NC(=O)[C@@H](CC(N)=O)NC(=O)[C@@H](CCC(=O)O)NC(=O)[C@@H](CC(C)C)NC(=O)[C@@H](CCCCN)NC(C)=O)[C@H](C)O)C(=O)N[C@H](CCCNC(=N)N)C(=O)N[C@H](CCCCN)C(=O)NCC(=O)NCC(=O)N[C@H](CCCNC(=N)N)C(=O)N[C@H](CCCNC(=N)N)C(=O)N[C@H](CCCNC(=N)N)C(=O)N[C@H](CCC(N)=O)C(=O)N[C@H](CCCNC(=N)N)C(=O)N[C@H](CCCNC(=N)N)C(=O)N[C@H](CCCCN)C(=O)N[C@H](CCCCN)C(=O)N[C@H](CCCNC(=N)N)C(=O)NCC(=O)N[C@H](Cc1ccc(O)cc1)C(N)=O [MYBMIM] (Ac-[dK][dL][dE][dN][dE][dT][dS][dM][dL][dL][dL][dE][dL][dE][dK][dI][dR][dK]GG[dR][dR][dR][dQ][dR][dR][dK][dK][dR]G[dY]-NH2)
Cell growth and survival of mock-treated and MIG empty vector control transduced MV-411 cells ([1]; p = 0.003): significant reduction of cell growth and survival
MYBMIM-induced apoptosis in cells ectopically overexpressing BCL2 ([1]; MV-411 MIG-BCL2 cells): largely, though not completely, rescued
H3K27Ac at the BCL2 enhancer [2]: significant albeit incomplete reduction
CD14, CD66b and CD11b expression [3]: no significant changes
Leukemia burden by bone marrow analysis of human leukemia cells (hCD45) ([4]; NSG mice, 25 mg/kg IP twice daily, 21 days, 6 mice, p = 1.2e-4): significant reduction in leukemia burden
Levels of BCL2 in residual leukemia cells in the bone marrow ([4]; quantitative immunofluorescence, p = 0.3): minimal reduction
